From PMC10537604, “Development and Assessment of 1,5–Diarylpyrazole/Oxime Hybrids Targeting EGFR and JNK–2 as Antiproliferative Agents: A Comprehensive Study through Synthesis, Molecular Docking, and Evaluation” (Molecules, 2023)

Legend:
[1] = system: human colorectal adenocarcinoma cell line DLD-1; assay: WST-8 antiproliferative assay, DLD-1; format: cell-based; conditions: DLD-1, 100 µM, WST-8 assay, read-out: Growth Inhibition (GI%) DLD-1
Description: (§1) Compounds 7a–j, 8a–j, 9a–c, and 10a–c were evaluated for in vitro anticancer activities against five different cancer cell lines, namely, human colorectal adenocarcinoma cell lines DLD-1, human cervical cancer cell line Hela, human pancreatic cancer cell line SUIT-2, human myelogenous leukemia cell line K562, and human hepatocellular carcinoma cell line HepG2 using WST-8 assay at concentrations of 100 µM to investigate the growth inhibition percent (GI%) of each compound using daunorubicin as a reference drug. […]. […] So, as a conclusion on the SAR study of those compounds as antiproliferative agents, the oxime moiety potentiated the anticancer activity and electron donating groups on R1 and R2 played an important role on this activity. Moreover, the sulfamoyl moiety on R3 seems to play a potential role in the activity of the prepared compounds (Table 1).
(§2) All selected compounds and daunorubicin were recorded as the minimum concentration required to inhibit half cell growth (IC50) and the results are listed in Table 2.
(§3) Evaluation of anticancer activity was performed according to the standard water-soluble tetrazolium-8 (WST-8) assay at the Faculty of Engineering, Yamagata University, Yonezawa, Japan, using an MTP-310 absorbance microplate reader. The EGFR inhibitory assay was carried out at the Faculty of Engineering, Yamagata University, Yonezawa, Japan, according to the protocol enzyme linked immunosorbent assay (ELISA) kits (Douset sandwich ELISA test, recombinant mouse EGFR). The JNK-2 inhibitory assay was performed at the Faculty of Engineering, Yamagata University, Yonezawa, Japan, according to the protocol of enzyme-linked immunosorbent assay (ELISA), the assay was carried out using the JNK-2 kit (Simple Step ELISA, pT183/Y185, Abcam Company, Cambridge, CB2 0AX, UK). Apoptosis and cell cycle analysis was performed at Faculty of medicine, Yamagata University, Yamagata, Japan, using BD FACS melody. Molecular docking was performed at the Nano Medical Engineering Laboratory, RIKEN Cluster for Pioneering Researchers, RIEKN, Japan, using ICM-Pro 3.8 software (MolSoft L.L.C., San Diego, CA, USA).
(§4) According to the standard water-soluble tetrazolium-8 (WST-8) assay, the current synthesized compounds have been tested for their anticancer activities against different five cancer cell lines; DLD-1, Hela, K562, SUIT-2, and HepG2 and daunorubicin was used as reference drug by the WST-8 assay. The five cells were maintained in a suspension culture, (Dulbecco’s modified eagle medium (DMEM) for SUIT-2, Hela, and HepG2 or PRIM for K562 and DLD), supplemented with 5% FBS (Fetal Bovine Serum) containing 1% of a penicillin-streptomycin (1:1) mixture. A 100 μL aliquot of cells (10,000 cells/mL) was added to a 96 well plate and incubated for 24 h at 37 °C in a humidified incubator containing 5% CO2 in the air. After 24 h, a 10 μL aliquot of test compound (concentrations varying in the range of 10–150 µM) was added to each of the 96 wells and incubated for 24 h. Then A 10 μL WST-8 solution (mixture of WST-8 and 1-methoxy PMS) was added to each well and the incubation continued for 3 h. The visible absorbance at 450 nm and 630 nm as the reference wavelength of each well was quantified using an MTP-310 absorbance microplate reader. Daunorubicin was used as a positive control. The results of cytotoxicity were recorded as growth inhibition percentages and as IC50 values.

[2] = system: human cervical cancer cell line Hela; assay: WST-8 antiproliferative assay, Hela; format: cell-based; conditions: WST-8 assay; for inhibition at 100 µM: read-out: Growth Inhibition (GI%) Hela
Description: as §1, §2, §3
as §4, with “After 24 h, a 10 μL aliquot of test compound (concentrations varying in the range of 10–150 µM) was added to each of the 96 wells and incubated for 24 h.” left out

[3] = system: human myelogenous leukemia cell line K562; assay: WST-8 antiproliferative assay, K562; format: cell-based; conditions: Homo sapiens, K562, WST-8 assay; for inhibition at 100 µM: read-out: Growth Inhibition (GI%) K562
Description: as §1, §2, §3
as §4, with “After 24 h, a 10 μL aliquot of test compound (concentrations varying in the range of 10–150 µM) was added to each of the 96 wells and incubated for 24 h.” left out

[4] = system: human pancreatic cancer cell line SUIT-2; assay: WST-8 antiproliferative assay, SUIT-2; format: cell-based; conditions: SUIT-2, 100 µM, WST-8 assay, read-out: Growth Inhibition (GI%) SUIT-2
Description: as §1, §2, §3, §4

[5] = system: human hepatocellular carcinoma cell line HepG2; assay: WST-8 antiproliferative assay, HepG2; format: cell-based; conditions: HepG2, 100 µM, WST-8 assay, read-out: Growth Inhibition (GI%) HepG2
Description: as §1, §2, §3, §4

[6] = system: human pancreatic cancer cell line SUIT-2; assay: WST-8 antiproliferative assay, SUIT-2; format: cell-based; conditions: WST-8 assay, six concentrations 1-100 µM
[7] = system: human colorectal adenocarcinoma cell line DLD-1; assay: WST-8 antiproliferative assay, DLD-1; format: cell-based; conditions: WST-8 assay, six concentrations 1-100 µM

Structure (SMILES)	inhibition at 100 µM [1]	inhibition at 100 µM [2]	IC50 ([2]; six concentrations 1-100 µM, read-out: IC50 Hela)	inhibition at 100 µM [3]	IC50 ([3]; six concentrations 1-100 µM, read-out: IC50 K562)	inhibition at 100 µM [4]	inhibition at 100 µM [5]	melting point	IC50 [6]	IC50 [7]
COc1cc(C(C)=O)ccc1OC(=O)c1cc(-c2ccc(Cl)cc2)n(-c2ccc(S(N)(=O)=O)cc2)n1 [Compound 7i, 4–Acetyl–2–methoxyphenyl–5–(4–chlorophenyl) 1–(4–sulfamoylphenyl)–1H–pyrazole–3–carboxylate]	46%	101%	25 µM	101%	93 µM	101%	63%	71 to 74 °C	92 µM	
COc1ccc(-c2cc(C(=O)Oc3ccc(/C(C)=N/O)cc3OC)nn2-c2ccccc2)cc1 [Compound 8c, (E)–4–(1–(Hydroxyimino)ethyl)–2–methoxyphenyl 5–(4–methoxyphenyl) 1–phenyl–1H–pyrazole–3–carboxylate]	0%	78%		67%		61%	51%	132 to 135 °C		
COc1cc(C(C)=O)ccc1OC(=O)c1cc(-c2ccc(C)cc2)n(-c2ccc(S(N)(=O)=O)cc2)n1 [Compound 7g, 4–Acetyl–2–methoxyphenyl–1–(4–sulfamoylphenyl) 5–p–tolyl–1H–pyrazole–3–carboxylate]	96.7%	30%		77%		92%	66%	83 to 85 °C	31 µM	13 µM
COc1ccc(-c2cc(C(=O)Oc3ccc(C(C)=O)cc3OC)nn2-c2ccc(S(N)(=O)=O)cc2)cc1 [Compound 7h, 4–Acetyl–2–methoxyphenyl 5–(4–methoxyphenyl) 1–(4–sulfamoylphenyl)–1H–pyrazole–3–carboxylate]	0%	0%		0%		73%	0%	80 to 83 °C		
COc1cc(C(C)=O)ccc1OC(=O)c1cc(-c2ccccc2)n(-c2ccccc2)n1 [Compound 7a, 4–Acetyl–2–methoxyphenyl 1,5–diphenyl–1H–pyrazole–3–carboxylate]	0%	55%		0%		101%	5%	98 to 100 °C		
COc1ccc(-c2cc(C(=O)Oc3ccc(C(C)=O)cc3OC)nn2-c2ccccc2)cc1 [Compound 7c, 4–Acetyl–2–methoxyphenyl–5–(4–methoxyphenyl) 1–phenyl–1H–pyrazole–3–carboxylate]	0%	52%		48%		68%	0%	69 to 71 °C		
COc1ccc(-c2cc(C(=O)Nc3ccc(C(C)=O)cc3)nn2-c2ccc(S(N)(=O)=O)cc2)cc1OC [Compound 9c, N–(4–Acetylphenyl)–5–(3,4–dimethoxyphenyl)–1–(4–sulfamoylphenyl)–1H–pyrazole–3–carboxamide]	16.8%	9%		57%		42%	22%	81 to 83 °C		
COc1ccc(-c2cc(C(=O)Nc3ccc(C(C)=O)cc3)nn2-c2ccc(S(N)(=O)=O)cc2)cc1 [Compound 9b, N–(4–Acetylphenyl)–5–(4–methoxyphenyl)–1–(4–sulfamoylphenyl)–1H–pyrazole–3–carboxamide]	42.1%	0%		31%		45%	19%	74 to 76 °C		
COc1cc(C(C)=O)ccc1OC(=O)c1cc(-c2ccccc2)n(-c2ccc(S(N)(=O)=O)cc2)n1 [Compound 7f, 4–Acetyl–2–methoxyphenyl–5–phenyl 1–(4–sulfamoylphenyl)–1H–pyrazole–3–carboxylate]	18.6%	16%		24%		75%	10%	69 to 72 °C		
COc1ccc(-c2cc(C(=O)Oc3ccc(C(C)=O)cc3OC)nn2-c2ccc(S(N)(=O)=O)cc2)cc1OC [Compound 7j, 4–Acetyl–2–methoxyphenyl–5–(3,4–dimethoxyphenyl) 1–(4–sulfamoylphenyl)–1H–pyrazole–3–carboxylate]	0.1%	10%		11%		81%	0%	75 to 78 °C		
COc1ccc(-c2cc(C(=O)Oc3ccc(C(C)=O)cc3OC)nn2-c2ccccc2)cc1OC [Compound 7e, 4–Acetyl–2–methoxyphenyl–5–(3,4–dimethoxyphenyl) 1–phenyl–1H–pyrazole–3–carboxylate]	59.4%	73%		0%		101%	14%	74 to 76 °C		
CC(=O)c1ccc(NC(=O)c2cc(-c3ccccc3)n(-c3ccc(S(N)(=O)=O)cc3)n2)cc1 [Compound 9a, N–(4–Acetylphenyl)–5–phenyl–1–(4–sulfamoylphenyl)–1H–pyrazole–3–carboxamide]	60.7%	9%		66%		60%	36%	81 to 83 °C		
COc1ccc(-c2cc(C(=O)Oc3ccc(/C(C)=N/O)cc3OC)nn2-c2ccc(S(N)(=O)=O)cc2)cc1OC [Compound 8j, (E)–4–(1–(Hydroxyimino)ethyl)–2–methoxyphenyl 5–(3,4–dimethoxyphenyl)–1–(4–sulfamoylphenyl)–1H–pyrazole–3–carboxylate]	9.6%	53%		34%		79%	60%	129 to 131 °C		
